# According to PMC7136958, “Targeting the pregnane X receptor using microbial metabolite mimicry” (EMBO Molecular Medicine, 2020):
# What was measured:
# [1] = target: T1, Human constitutive androstane receptor (hCAR) (Homo sapiens, UniProt Q14994); test: hCAR reporter activity in HEK293T cells; type: cell-based
# T1 construct: expressed in transfected cells; host or cells: HEK293T
# Procedure: Reverse transfection assays were performed in Caco‐2 cells as previously published with the following modifications (Kublbeck et al, 2015). 3.0 × 10^4 cells per well were transfected using pSG5‐PXR plasmid (300 ng/well), β‐Gal expression plasmid (600 ng/well), and CYP3A4‐luciferase reporter (500 ng/well) (Huang et al, 2007). After 24‐h transfection using Lipofectamine® LTX ([…] of plasmid), cells were exposed to FKK5 for 24 h. Cell lysates were prepared for β‐Gal and luciferase assays as previously published (Huang et al, 2007). The data are expressed as mean ± SD RLU (relative light units from luciferase assay) normalized to β‐Gal activity in the same well. Differences were tested using 2‐way ANOVA with Tukey's multiple comparison test, and P < 0.05 was considered significant (*). Standard transient transfection assays (PXR, CAR) in HEK293T cells were performed as previously published (Huang et al, 2007).
# [2] = system: NF-κB; test: NF-κB nuclear translocation (immunofluorescence) in human intestinal organoids; type: cell-based; conditions: 25 μM, with cytokines
# Procedure: HIOs and Caco‐2 were exposed to a pro‐inflammatory cytokine cocktail (10 ng/ml IFN‐γ, 10 ng/ml TNF‐α, 50 ng/ml IL‐1β) for 2–24 h in combination with DMSO or FKK5 and FKK6 compounds (10 and 25 μm). Relative mRNA levels of IL‐8 and IL‐6 were determined using quantitative real‐time PCR, with normalization to GAPDH. RNA was isolated using an RNeasy Mini Kit (Qiagen) as per the manufacturer's instructions. On column DNase (Qiagen) was used to remove any contaminating DNA. Next, cDNA was formed using iScript cDNA Synthesis Kit (Bio‐Rad) and 100 ng RNA. qRT–PCR was performed with SsoAdvanced Universal SYBR Green Kit (Bio‐Rad). The following primers were used: IL‐8 Forward: […]; IL‐8 Reverse: […]; IL‐6 Forward: […]; IL‐6 Reverse: […]; GAPDH Forward: […]; GAPDH Reverse: […]. For immunofluorescent staining of NF‐ĸB translocation to the cell nucleus, HIOs and Caco‐2 cell monolayers were fixed in 4% formaldehyde (in 1 × PBS) overnight at 4°C. The formaldehyde was removed by washing with 1 × PBS, and an antigen retrieval step was performed by incubating in 10 mM sodium citrate buffer in a vegetable steamer for 20 min. The samples were then blocked with normal donkey serum (10% in PBS with 0.3% Triton X‐100) for 1 h. […]
# [3] = target: T2, PXR (Homo sapiens, UniProt O75469); test: Ligand efficiency metric (LEM) analysis; design: expressed in transfected cells; host or cells: LS180; conditions: NSEI-nBEI plane, from PXR reporter Emax
# T2 sequence (O75469 1-434): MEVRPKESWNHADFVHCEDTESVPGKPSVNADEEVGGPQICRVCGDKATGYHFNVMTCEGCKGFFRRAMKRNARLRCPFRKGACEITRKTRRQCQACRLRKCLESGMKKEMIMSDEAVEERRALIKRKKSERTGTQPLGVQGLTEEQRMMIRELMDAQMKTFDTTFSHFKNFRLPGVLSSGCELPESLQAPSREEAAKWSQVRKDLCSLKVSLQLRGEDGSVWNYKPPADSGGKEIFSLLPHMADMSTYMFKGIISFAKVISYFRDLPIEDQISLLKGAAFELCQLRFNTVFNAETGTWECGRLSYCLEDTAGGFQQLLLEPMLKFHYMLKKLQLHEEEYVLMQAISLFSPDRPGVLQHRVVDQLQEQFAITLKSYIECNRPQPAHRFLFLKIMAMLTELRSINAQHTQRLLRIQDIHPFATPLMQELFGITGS
# Excerpt: Ligand efficiency metric (LEM) analysis for FKK ligand efficiency. The ligand efficiency metrics (LEMs) of compounds FKK1 to 10 and FKK999 as a reference compound, have been analyzed by using a web tool named AtlasCBS which represents LEMs as variables for a Cartesian mapping of chemico-biological space (CBS). In particular, Cartesian planes combine three critical variables in drug discovery (affinity, size, and polarity) into easily interpretable ‘efficiency planes’ useful to guide a drug discovery process. In the Cartesian plane, each target:ligand pair appears as a point whose coordinates are given by pairs of values derived from the affinity of the ligand toward the target (Ki or equivalent) in relation to its size (MW or number of non-hydrogen atoms NHA), and its polarity (expressed as Polar Surface Area, PSA, or number of polar atoms, NPOL = count of N + O). The first one represents a size-related LEM and the second a polarity-related LEM. Consistently, compounds that correspond to marketed drugs typically occupy the upper right quadrant of the plots (‘Nort h-East’ direction, NE), where both the efficiency -pe r-size and efficiency -per-polarity are optimized 1,2.
# Our results are represented in the efficiency plane NS EI-nBEI where:
# NSEI = –log Ki/NPOL (N, O) = pKi/NPOL (N, O)
# As a measure of activity of the above compounds, the reciprocal of the percentage efficacy values (1/Efficacy [%]) obtained in the PXR-dependent luciferase activity test (Emax values from Fig. 1) were used in lieu of the affinity constants (Ki in the above equations). FKK4 would appear as the most efficient compound since it is placed in the NE panel (GL, unpublished observations). However, this congener might suffer from metabolic liability with its N-protecting group possibly generating toxic aldehydes by oxidative cleavage in vivo. Unambiguously, the two most efficient compounds besides FKK4 are FKK5 and FKK6 which were therefore considered suitable lead compounds, as al so
# [4] = system: CYP1A1, CYP3A4, MDR1 mRNA in primary human hepatocytes; test: qRT-PCR of CYP1A1, CYP3A4, MDR1 mRNA in primary human hepatocytes (four donors); conditions: for CYP1A1 mRNA fold to C / CYP3A4 mRNA fold to C / MDR-1 mRNA fold to C: primary human hepatocytes donor Hep200538, fold to UT control; for CYP1A1 mRNA fold to C / CYP3A4 mRNA fold to C / MDR-1 mRNA fold to C / CYP1A1 (1A1) mRNA, fold to C / CYP3A4 (3A4) mRNA, fold to C / MDR1 mRNA fold to C / MDR-1 mRNA, fold to C: normalised to GAPDH; for CYP1A1 (1A1) mRNA, fold to C / CYP3A4 (3A4) mRNA, fold to C / MDR1 mRNA fold to C / MDR-1 mRNA, fold to C: primary human hepatocytes, fold vs untreated (UT)
# T1 sequence (Q14994 whole entry): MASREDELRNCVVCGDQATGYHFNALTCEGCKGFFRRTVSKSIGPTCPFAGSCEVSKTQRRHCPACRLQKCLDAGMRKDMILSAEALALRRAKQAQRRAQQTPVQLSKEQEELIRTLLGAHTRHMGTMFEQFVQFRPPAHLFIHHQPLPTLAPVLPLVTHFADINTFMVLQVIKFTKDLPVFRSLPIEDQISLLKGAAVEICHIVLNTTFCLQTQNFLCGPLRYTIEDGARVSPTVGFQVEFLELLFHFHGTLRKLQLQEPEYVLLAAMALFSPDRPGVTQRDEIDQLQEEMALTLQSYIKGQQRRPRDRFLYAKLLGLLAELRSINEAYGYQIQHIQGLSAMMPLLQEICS
smiles,measurement,setting,value
"O=C(c1ccncc1)c1cc2ccccc2n1S(=O)(=O)c1ccccc1 [FKK5, (1-(phenylsulfonyl)-1H-indol-2-yl)(pyridin-4-yl)methanone]",CAR activity induction,[1],did not induce
same,NF-κB localisation,[2],increased cytoplasmic
same,LEM analysis prediction,[3],best candidates for further studies
same,CYP1A1 mRNA induction,[4]; four donors,did not
same,CYP1A1 mRNA fold to C,[4],1.13
same,CYP3A4 mRNA fold to C,[4],0.84
same,MDR-1 mRNA fold to C,[4],0.52
same,"CYP1A1 (1A1) mRNA, fold to C",[4]; donor Hep200529,1.12 fold
same,"CYP3A4 (3A4) mRNA, fold to C",[4]; donor Hep200529,0.73 fold
same,MDR1 mRNA fold to C,[4]; donor Hep200529,0.93 fold
same,"CYP1A1 (1A1) mRNA, fold to C",[4]; donor Hep200533,1.51 fold
same,"CYP3A4 (3A4) mRNA, fold to C",[4]; donor Hep200533,1.03 fold
same,"MDR-1 mRNA, fold to C",[4]; donor Hep200533,1.05 fold
same,"CYP1A1 (1A1) mRNA, fold to C",[4]; donor Hep220932,0.39 fold
same,"CYP3A4 (3A4) mRNA, fold to C",[4]; donor Hep220932,0.50 fold
same,"MDR-1 mRNA, fold to C",[4]; donor Hep220932,0.35 fold
C#CCC(O)(c1ccncc1)c1cc2ccccc2n1S(=O)(=O)c1ccccc1 (stereo not shown) [FKK6],CAR activity induction,[1],did not induce
same,NF-κB localisation,[2],increased cytoplasmic
same,LEM analysis prediction,[3],best candidates for further studies
same,CYP1A1 mRNA induction,[4]; four donors,did not
same,CYP3A4 mRNA induction,[4]; four donors,more than twofold induction in one of four hepatocyte samples
same,MDR1 mRNA induction,[4]; four donors,MDR1 mRNA induction in one of four hepatocyte samples
same,CYP1A1 mRNA fold to C,[4],15.94
same,CYP3A4 mRNA fold to C,[4],6.17
same,MDR-1 mRNA fold to C,[4],0.95
same,"CYP1A1 (1A1) mRNA, fold to C",[4]; donor Hep200529,6.44 fold
same,"CYP3A4 (3A4) mRNA, fold to C",[4]; donor Hep200529,2.67 fold
same,MDR1 mRNA fold to C,[4]; donor Hep200529,1.52 fold
same,"CYP1A1 (1A1) mRNA, fold to C",[4]; donor Hep200533,3.26 fold
same,"CYP3A4 (3A4) mRNA, fold to C",[4]; donor Hep200533,2.13 fold
same,"MDR-1 mRNA, fold to C",[4]; donor Hep200533,2.03 fold
same,"CYP1A1 (1A1) mRNA, fold to C",[4]; donor Hep220932,0.76 fold
same,"CYP3A4 (3A4) mRNA, fold to C",[4]; donor Hep220932,0.97 fold
same,"MDR-1 mRNA, fold to C",[4]; donor Hep220932,0.40 fold
